{
  "source": "ChEMBL document CHEMBL1201862",
  "about": "“PubChem BioAssay data set” (2004)",
  "assay_in_all_cases": "NCI-60 cell line screen, 48 h",
  "key": {"786-0": {"system": "786-0"}, "BT-549": {"system": "BT-549"}, "CAKI-1": {"system": "CAKI-1"}, "HCT-15": {"system": "HCT-15"}, "HT-29": {"system": "HT-29"}, "K562": {"system": "K562"}, "LOX IMVI": {"system": "LOX IMVI"}, "MCF7": {"system": "MCF7"}, "MDA-MB-231": {"system": "MDA-MB-231"}, "MDA-MB-435": {"system": "MDA-MB-435"}, "MDA-N": {"system": "MDA-N"}, "NCI-H226": {"system": "NCI-H226"}, "OVCAR-4": {"system": "OVCAR-4"}, "RXF 393": {"system": "RXF 393"}, "SF-295": {"system": "SF-295"}, "SN12C": {"system": "SN12C"}, "SNB-75": {"system": "SNB-75"}, "UACC-62": {"system": "UACC-62"}, "HL-60": {"system": "HL-60"}},
  "note": "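How tested: cells in 96-well plates exposed to compound for 48 hours at five concentrations. GI50: concentration for 50% inhibition of growth.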 Calls of active or inactive are those of the source. Rule as the data show it: active = GI50 up to about 1.1 µM and inactive = higher. Non-standard residues stand in square brackets, D forms with d. Residues, ends and D or L forms follow the SMILES beside them. *: point of attachment. Benzoyl(4-OMe) = COc1ccc(C(=O)*)cc1; 2Thi = N[CH](Cc1cccs1)C(=O)O",
  "data": [
    {"smiles": "CCC(C)C(NC(=O)C(Cc1cccs1)NC(=O)C(CC(C)C)NC(=O)C(CC(C)C)NC(=O)C(CCCCN)NC(=O)C(CCCNC(=N)N)NC(=O)c1ccc(OC)cc1)C(=O)NC(CC(C)C)C(N)=O", "note": "(stereo not given) ({Benzoyl(4-OMe)}-RKLL[2Thi]IL-NH2; configuration not given here)", "values": [
      {"measurement": "GI50", "setting": "786-0", "result": "> 100 µM (inactive)"},
      {"measurement": "GI50", "setting": "BT-549", "result": "> 100 µM (inactive)"},
      {"measurement": "GI50", "setting": "CAKI-1", "result": "> 100 µM (inactive)"},
      {"measurement": "GI50", "setting": "HCT-15", "result": "> 100", "unit": "µM"},
      {"measurement": "GI50", "setting": "HT-29", "result": "> 100 µM (inactive)"},
      {"measurement": "GI50", "setting": "K562", "result": "> 100 µM (inactive)"},
      {"measurement": "GI50", "setting": "LOX IMVI", "result": "> 100 µM (inactive)"},
      {"measurement": "GI50", "setting": "MCF7", "result": "> 100 µM (inactive)"},
      {"measurement": "GI50", "setting": "MDA-MB-231", "result": "> 100 µM (inactive)"},
      {"measurement": "GI50", "setting": "MDA-MB-435", "result": "> 100 µM (inactive)"},
      {"measurement": "GI50", "setting": "MDA-N", "result": "> 100 µM (inactive)"},
      {"measurement": "GI50", "setting": "NCI-H226", "result": "> 100 µM (inactive)"},
      {"measurement": "GI50", "setting": "OVCAR-4", "result": "> 100 µM (inactive)"},
      {"measurement": "GI50", "setting": "RXF 393", "result": "> 100 µM (inactive)"},
      {"measurement": "GI50", "setting": "SF-295", "result": "> 100 µM (inactive)"},
      {"measurement": "GI50", "setting": "SN12C", "result": "> 100 µM (inactive)"},
      {"measurement": "GI50", "setting": "SNB-75", "result": "> 100 µM (inactive)"},
      {"measurement": "GI50", "setting": "UACC-62", "result": "> 100 µM (inactive)"}
    ]},
    {"smiles": "CCCCCCCCCCCC(=O)c1c(O)cc(C)oc1=O", "values": [
      {"measurement": "GI50", "setting": "786-0", "result": "80.9 µM (inactive)"},
      {"measurement": "GI50", "setting": "BT-549", "result": "87.1 µM (inactive)"},
      {"measurement": "GI50", "setting": "CAKI-1", "result": "40.4 µM (inactive)"},
      {"measurement": "GI50", "setting": "HCT-15", "result": 41.7, "unit": "µM"},
      {"measurement": "GI50", "setting": "HL-60", "result": "42.4 µM (inactive)"},
      {"measurement": "GI50", "setting": "HT-29", "result": "66.7 µM (inactive)"},
      {"measurement": "GI50", "setting": "K562", "result": "28.6 µM (inactive)"},
      {"measurement": "GI50", "setting": "LOX IMVI", "result": "28.1 µM (inactive)"},
      {"measurement": "GI50", "setting": "MCF7", "result": "37.8 µM (inactive)"},
      {"measurement": "GI50", "setting": "MDA-MB-231", "result": "28.8 µM (inactive)"},
      {"measurement": "GI50", "setting": "MDA-MB-435", "result": "49.5 µM (inactive)"},
      {"measurement": "GI50", "setting": "MDA-N", "result": "34.6 µM (inactive)"},
      {"measurement": "GI50", "setting": "NCI-H226", "result": "45.6 µM (inactive)"},
      {"measurement": "GI50", "setting": "SF-295", "result": "42.8 µM (inactive)"},
      {"measurement": "GI50", "setting": "SN12C", "result": "33.3 µM (inactive)"},
      {"measurement": "GI50", "setting": "SNB-75", "result": "36.4 µM (inactive)"},
      {"measurement": "GI50", "setting": "UACC-62", "result": "49.7 µM (inactive)"}
    ]},
    {"smiles": "CSc1nc(Br)nc2c1ncn2C1CC(Oc2ccc(C)cc2)C(COc2ccc(C)cc2)O1", "note": "(stereo not given)", "values": [
      {"measurement": "GI50", "setting": "786-0", "result": "> 100 µM (inactive)"},
      {"measurement": "GI50", "setting": "BT-549", "result": "> 100 µM (inactive)"},
      {"measurement": "GI50", "setting": "CAKI-1", "result": "> 100 µM (inactive)"},
      {"measurement": "GI50", "setting": "HCT-15", "result": "> 100", "unit": "µM"},
      {"measurement": "GI50", "setting": "HL-60", "result": "> 100 µM (inactive)"},
      {"measurement": "GI50", "setting": "HT-29", "result": "> 100 µM (inactive)"},
      {"measurement": "GI50", "setting": "LOX IMVI", "result": "> 100 µM (inactive)"},
      {"measurement": "GI50", "setting": "MCF7", "result": "> 100 µM (inactive)"},
      {"measurement": "GI50", "setting": "MDA-MB-231", "result": "61.2 µM (inactive)"},
      {"measurement": "GI50", "setting": "MDA-MB-435", "result": "> 100 µM (inactive)"},
      {"measurement": "GI50", "setting": "MDA-N", "result": "> 100 µM (inactive)"},
      {"measurement": "GI50", "setting": "NCI-H226", "result": "> 100 µM (inactive)"},
      {"measurement": "GI50", "setting": "OVCAR-4", "result": "83 µM (inactive)"},
      {"measurement": "GI50", "setting": "SF-295", "result": "> 100 µM (inactive)"},
      {"measurement": "GI50", "setting": "SN12C", "result": "> 100 µM (inactive)"},
      {"measurement": "GI50", "setting": "SNB-75", "result": "23.3 µM (inactive)"},
      {"measurement": "GI50", "setting": "UACC-62", "result": "> 100 µM (inactive)"}
    ]},
    {"smiles": "COC(=O)C1CCC(=O)N1C(c1ccc(OC)cc1)c1ccc(OC)cc1", "note": "(stereo not given)", "values": [
      {"measurement": "GI50", "setting": "786-0", "result": "> 100 µM (inactive)"},
      {"measurement": "GI50", "setting": "BT-549", "result": "> 100 µM (inactive)"},
      {"measurement": "GI50", "setting": "CAKI-1", "result": "> 100 µM (inactive)"},
      {"measurement": "GI50", "setting": "HCT-15", "result": "> 100", "unit": "µM"},
      {"measurement": "GI50", "setting": "HL-60", "result": "> 100 µM (inactive)"},
      {"measurement": "GI50", "setting": "HT-29", "result": "> 100 µM (inactive)"},
      {"measurement": "GI50", "setting": "K562", "result": "> 100 µM (inactive)"},
      {"measurement": "GI50", "setting": "LOX IMVI", "result": "> 100 µM (inactive)"},
      {"measurement": "GI50", "setting": "MCF7", "result": "> 100 µM (inactive)"},
      {"measurement": "GI50", "setting": "MDA-MB-231", "result": "> 100 µM (inactive)"},
      {"measurement": "GI50", "setting": "MDA-MB-435", "result": "> 100 µM (inactive)"},
      {"measurement": "GI50", "setting": "MDA-N", "result": "> 100 µM (inactive)"},
      {"measurement": "GI50", "setting": "NCI-H226", "result": "> 100 µM (inactive)"},
      {"measurement": "GI50", "setting": "OVCAR-4", "result": "> 100 µM (inactive)"},
      {"measurement": "GI50", "setting": "SF-295", "result": "> 100 µM (inactive)"},
      {"measurement": "GI50", "setting": "SN12C", "result": "> 100 µM (inactive)"},
      {"measurement": "GI50", "setting": "SNB-75", "result": "> 100 µM (inactive)"},
      {"measurement": "GI50", "setting": "UACC-62", "result": "> 100 µM (inactive)"}
    ]}
  ]
}
